Patent publication US20240360067A1, “DERIVATIVES OF ITACONIC ACID AND THEIR USE AS ANTI-INFLAMMATORY AGENTS” (Sitryx Therapeutics Limited, priority 2021, published 2024)

Key:
[1] = system: IL-1β; experiment: THP-1 AlphaLISA IL-1β cytokine assay (PMA-differentiated THP-1, LPS then nigericin); format: cell-based; conditions: 30 min pre-incubation, LPS 24 hr, nigericin 1 hour
Method: (§1) Measuring Inhibitory Effects on IL-1β, and IL-6 Cytokine Output from THP-1s
(§2) The cytokine inhibition profiles of compounds of formula (I) were determined in a differentiated THP-1 cell assay. All assays were performed in RPMI-1640 growth medium (Gibco), supplemented with 10% fetal bovine serum (FBS; Gibco), 1% penicillin-streptomycin and 1% sodium pyruvate unless specified otherwise. The IL-1β and IL-6 cytokine inhibition assays were each run in a background of differentiated THP-1 cells as described below. All reagents described were from Sigma-Aldrich unless specified otherwise. Compounds were prepared as 10 mM DMSO stocks.
(§3) THP-1 cells were expanded as a suspension up to 80% confluence in appropriate growth medium. Cells were harvested, suspended, and treated with an appropriate concentration of phorbol 12-myristate 13-acetate (PMA) over a 72 hr period (37° C./5% CO2).
(§4) Following 72 hrs of THP-1 cell incubation, cellular medium was removed and replaced with fresh growth media containing 1% of FBS. Working concentrations of compounds were prepared separately in 10% FBS treated growth medium and pre-incubated with the cells for 30 minutes (37° C./5% CO2). Following the 30 minute compound pre-incubation, THP-1s were treated with an appropriate concentration of LPS and the THP-1s were subsequently incubated for a 24 hr period (37° C./5% CO2). An appropriate final concentration of Nigericin was then dispensed into the THP-1 plates and incubated for 1 hour (37° C./5% CO2) before THP-1 supernatants were harvested and collected in separate polypropylene 96-well holding plates.
(§5) Reagents from each of the IL-1β and IL-6 commercial kits (Perkin Elmer) were prepared and run according to the manufacturer's instructions. Subsequently, fluorescence signal detection in a microplate reader was measured (EnVision® Multilabel Reader, Perkin Elmer).
(§6) Percentage inhibition was calculated per cytokine by normalizing the sample data to the high and low controls used within each plate (+/−LPS respectively).

[2] = system: NRF2; experiment: NRF2 activation assay (DiscoverX PathHunter NRF2 translocation kit, U2OS cells); format: cell-based; conditions: Homo sapiens; for Emax: U2OS, normalised to dimethyl fumarate high control; for EC50: U2OS PathHunter cells, 6 hours
[3] = Hepatocyte stability assay, mouse; format: in vitro ADME; conditions: 10 μM compound, 0.5×10^6 cells/mL, 60 min; for CIint: Mouse hepatocytes; for half-life at 10 μM: cryo-preserved hepatocytes, read-out: T½
Description: (§7) Defrosted cryo-preserved hepatocytes (viability >70%) were used to determine the metabolic stability of a compound via calculation of intrinsic clearance (CIint; a measure of the removal of a compound from the liver in the absence of blood flow and cell binding). Clearance data are particularly important for in vitro work as they can be used in combination with in vivo data to predict the half-life and oral bioavailability of a drug.
(§8) The metabolic stability in hepatocytes assay involved a time-dependent reaction using both positive and negative controls. The cells must be pre-incubated at 37° C. then spiked with test compound (and positive control); samples taken at pre-determined time intervals were analysed to monitor the change in concentration of the initial drug compound over 60 minutes. A buffer incubation reaction (with no hepatocytes present) acted as a negative control and two cocktail solutions, containing compounds with known high and low clearance values (verapamil/7-hydroxycoumarin and propranolol/diltiazem), acted as positive controls. • 1. The assay was run with a cell concentration of 0.5×10^6 cells/mL in Leibovitz buffer. • 2. All compounds and controls were run in duplicate. • 3. Compound concentration was 10 μM. • 4. All compounds and controls were incubated with both cells and buffer to show turnover is due to hepatic metabolism. • 5. All wells on the incubation plate had 326.7 μL of either cells or buffer added. • 6. Prior to assay, cell and buffer-only incubation plates were preincubated for 10 mins at 37° C. • 7. The assay was initiated by adding compounds, 3.3 μL of 1 mM in 10% DMSO-90% Buffer; final DMSO concentration is 0.1%. • 8. Samples were taken at regular timepoints (0, 5, 10, 20, 40, 60 min) until 60 mins. • 9. Sample volume was 40 μL and added to 160 μL of crash solvent (acetonitrile with internal standard) and stored on ice. • 10. At the end of the assay, the crash plates were centrifuged at 3500 rpm for 20 mins at 4° C. • 11. 80 μL of clear supernatant was removed and mixed with 80 μL of deionised water before being analysed by LC-MS/MS.
(§9) Raw LC-MS/MS data were exported to, and analysed in, Microsoft Excel for determination of intrinsic clearance. The percentage remaining of a compound was monitored using the peak area of the initial concentration as 100%. Intrinsic clearance and half-life values were calculated using a graph of the natural log of percentage remaining versus the time of reaction in minutes.

[4] = system: IL-6; experiment: THP-1 AlphaLISA IL-6 cytokine assay (PMA-differentiated THP-1, LPS then nigericin); format: cell-based; conditions: Homo sapiens; differentiated THP-1 cells; 30 min pre-incubation, LPS 24 hr, nigericin 1 hour
Method: as §1, §2, §3, §4, §5, §6

[5] = Hepatocyte stability assay, human; format: in vitro ADME; conditions: 10 μM compound, 0.5×10^6 cells/mL, 60 min; for CIint: Human hepatocytes; for half-life at 10 μM: cryo-preserved hepatocytes, read-out: T½
Description: as §7, §8, §9

[6] = Homo sapiens, THP-1, differentiated THP-1 cells

Row | Structure (SMILES) | IC50 [1, 6] | IC50 ([1]; differentiated THP-1 cells) | EC50 ([2]; +GSH) | EC50 ([2]; −GSH) | CIint [3] | half-life at 10 μM [3] | IC50 [4] | CIint [5] | half-life at 10 μM [5] | Emax ([2]; +GSH) | Emax ([2]; −GSH) | IC50 ([1]; Homo sapiens, differentiated THP-1 cells)
1 | C=C(CC(=O)NCCN1CCOCC1)C(=O)OC1(c2ccc(C(F)(F)F)cc2)CCC1 [Example 13, 1-(4-(trifluoromethyl)phenyl)cyclobutyl 2-methylene-4-((2-morpholinoethyl)amino)-4-oxobutanoate] | 6.5 µM | 8.5 µM | 48 µM | 38.8 µM | 516 μL min^−1 10^−6 cells | 4 min | 8.1 µM | 126 μL min^−1 10^−6 cells | 12 min | 84% | 174% | –
2 | C=C(CC(=O)NC1CCN(C)CC1)C(=O)OC1(c2ccc(C(F)(F)F)cc2)CCC1 [Example 14, 1-(4-(trifluoromethyl)phenyl)cyclobutyl 2-methylene-4-((1-methylpiperidin-4-yl)amino)-4-oxobutanoate] | 5.2 µM | – | 49.4 µM | 14.6 µM | 108 μL min^−1 10^−6 cells | 12 min | 3.9 µM | 40 μL min^−1 10^−6 cells | 38 min | 95% | 80% | –
3 | C=C(CC(=O)OCC(=O)O)C(=O)OC1(c2ccc(C(F)(F)F)cc2)CCC1 [Example 22, 2-((3-((1-(4-(trifluoromethyl)phenyl)cyclobutoxy)carbonyl)but-3-enoyl)oxy)acetic acid] | – | – | 41.1 µM | 40 µM | 392 μL min^−1 10^−6 cells | 4 min | > 31.6 µM | 7 μL min^−1 10^−6 cells | 204 min | 45% | 100% | 15.2 µM
4 | C/C(=C\C(=O)O)C(=O)OC1(c2ccc(C(F)(F)F)cc2)CCC1 [Example 23, 3-methyl-4-oxo-4-(1-(4-(trifluoromethyl)phenyl)cyclobutoxy)but-2-enoic acid] | 4 µM | – | > 100 µM | 2.8 µM | <3 μL min^−1 10^−6 cells | > 460 min | > 100 µM | <3 μL min^−1 10^−6 cells | > 460 min | 4% | 39% | –

More lines, in order of falling IC50 [1, 6], values ahead:

Row | IC50 [1, 6] | IC50 ([1]; differentiated THP-1 cells) | EC50 ([2]; +GSH) | EC50 ([2]; −GSH) | CIint [3] | half-life at 10 μM [3] | IC50 [4] | CIint [5] | half-life at 10 μM [5] | Structure (SMILES) | Emax ([2]; +GSH) | Emax ([2]; −GSH) | IC50 ([1]; Homo sapiens, differentiated THP-1 cells)
5 | 7.2 µM | – | 55 µM | 38 µM | 100 μL min^−1 10^−6 cells | 21 min | 3.9 µM | 37 μL min^−1 10^−6 cells | 42 min | C=C(CC(=O)NCC(N)=O)C(=O)OC1(c2ccc(C(F)(F)F)cc2)CCC1 [Example 21, 1-(4-(trifluoromethyl)phenyl)cyclobutyl 4-((2-amino-2-oxoethyl)amino)-2-methylene-4-oxobutanoate] | 86% | 184% | –
6 | 5.3 µM | – | 51.3 µM | 26.3 µM | 508 μL min^−1 10^−6 cells | 3 min | 7.3 µM | 92 μL min^−1 10^−6 cells | 14 min | C=C(CC(=O)NCc1ncc[nH]1)C(=O)OC1(c2ccc(C(F)(F)F)cc2)CCC1 [Example 15, 1-(4-(trifluoromethyl)phenyl)cyclobutyl 4-(((1H-imidazol-2-yl)methyl)amino)-2-methylene-4-oxobutanoate] | 86% | 131% | –
7 | 5.2 µM | – | 39.4 µM | 14.7 µM | 92 μL min^−1 10^−6 cells | 14 min | 3.8 µM | 31 μL min^−1 10^−6 cells | 52 min | C=C(CC(=O)NC1CS(=O)(=O)C1)C(=O)OC1(c2ccc(C(F)(F)F)cc2)CCC1 [Example 18, 1-(4-(trifluoromethyl)phenyl)cyclobutyl 4-((1,1-dioxidothietan-3-yl)amino)-2-methylene-4-oxobutanoate] | 70% | 90% | –
8 | 2.9 µM | – | 31.4 µM | 14.4 µM | 668 μL min^−1 10^−6 cells | 3 min | 2.6 µM | 85 μL min^−1 10^−6 cells | 18 min | C=C(CC(=O)NC1CCOCC1)C(=O)OC1(c2ccc(C(F)(F)F)cc2)CCC1 [Example 20, 1-(4-(trifluoromethyl)phenyl)cyclobutyl 2-methylene-4-oxo-4-((tetrahydro-2H-pyran-4-yl)amino)butanoate] | 63% | 101% | –
9 | 2.5 µM | – | 50.7 µM | 40.2 µM | 161 μL min^−1 10^−6 cells | 13 min | 3.8 µM | 32 μL min^−1 10^−6 cells | 48 min | C=C(CC(=O)NCCO)C(=O)OC1(c2ccc(C(F)(F)F)cc2)CCC1 [Example 19, 1-(4-(trifluoromethyl)phenyl)cyclobutyl 4-((2-hydroxyethyl)amino)-2-methylene-4-oxobutanoate] | 102% | 210% | –
